In patent US20250084060A1, “PRMT5 INHIBITORS AND METHODS OF TREATMENT” (HANGZHOU UNOGEN BIOTECH, LTD., priority 2022, published 2025):

Assays:
PRMT5 = PRMT5 (Homo sapiens (Human), UniProt O14744); experiment: PRMT5 Chemiluminescent Assay; assay type: biochemical; conditions: PRMT5 chemiluminescent assay kit (BPS Bioscience), histone H4 peptide substrate, eight-point dose response
Experimental: The PRMT5 activity is measured by using “PRMT5 Chemiluminescent Assay Kit” from BPS Bioscience, Catalog Number 52002L as per the instructions of the manufacturer. Briefly, the PRMT5 enzyme is incubated with S-adenosylmethionine in a 96-well plate precoated with histone H4 peptide substrate. Next, a highly specific antibody that recognizes methylated R3 residue of Histone H4 is added followed by a horseradkish peroxidase-labeled (HRP-labeled) secondary antibody. Detection is done by the addition of the HRP substrate to produce chemiluminescence that can be measured quantitatively.
Compounds were serially diluted 3-fold and dosed from 10 uM down to 0 uM. Compounds were tested in duplicates to generate an eight-point dose response for the calculation of their IC50s.

Z-138 cells = experiment: Z138 Cell Proliferation Assay; assay type: cell-based; conditions: Z-138 human mantle cell lymphoma cells, 72 hours, CTG readout
Experimental: Human Mantle Cell Lymphoma
Z-138 cells were plated in a 96-well plate in IMDM medium containing 10% Horse Serum and PenStrep at a density of 10,000 cells/well. The plates were incubated at 37° C. in a humidified, 5% CO2 incubator. The next day, serially diluted compounds were added in duplicates for 72 hours. Compounds were tested at 10, 2.5, 0.625, 0.156, 0.039, 0.010 0.002 and 0 uM final concentrations. After 72 hours of compound addition, […] of Promega's CTG assay reagent was added and incubated at room temperature for 10 minutes. Chemiluminescence was read using a GloMax Discover instrument.

[1] = Mouse Pharmacokinetic Studies; assay type: in vivo; conditions: male BALB/c mice, 3 mg/kg IV tail bolus, plasma
Experimental: Samples were obtained from 3 male BALB/c mice at staggered time points. Each mouse was given a tail bolus injection of 3 mg/kg injection of Compound 70 formulated as an IV solution with DMSO: PEG400: Aqueous solution with 20% HP-β-CD (5:30:65, v:v:v) (adjusted by 1N HCl). Blood samples (collected into lithium heparin tubes) were obtained at predose, and at 5, 15, 30 min and at 1, 2-, 4-, 8- and 24-hour, post injection. Plasma was separated from blood and stored at −20° C. prior to analysis. Samples were assayed by a LC/MS/MS procedure [AB Sciex API 4000; ACE Excel 5 C4 Column (50 mm*2.1 mm); Mobile Phase A: 5 mM NH4OAc (with 0.05% FA); Mobile Phase B: ACN (with 0.1% FA)]. Pharmacokinetic parameters were obtained from plasma concentrations using the R program—PK Package, Basic Non-Compartmental Pharmacokinetics, Thomas Jaki and Martin J. Wolfsegger Version 1.3-3, Jan. 6, 2016.

Chain of PRMT5 (O14744 2-637): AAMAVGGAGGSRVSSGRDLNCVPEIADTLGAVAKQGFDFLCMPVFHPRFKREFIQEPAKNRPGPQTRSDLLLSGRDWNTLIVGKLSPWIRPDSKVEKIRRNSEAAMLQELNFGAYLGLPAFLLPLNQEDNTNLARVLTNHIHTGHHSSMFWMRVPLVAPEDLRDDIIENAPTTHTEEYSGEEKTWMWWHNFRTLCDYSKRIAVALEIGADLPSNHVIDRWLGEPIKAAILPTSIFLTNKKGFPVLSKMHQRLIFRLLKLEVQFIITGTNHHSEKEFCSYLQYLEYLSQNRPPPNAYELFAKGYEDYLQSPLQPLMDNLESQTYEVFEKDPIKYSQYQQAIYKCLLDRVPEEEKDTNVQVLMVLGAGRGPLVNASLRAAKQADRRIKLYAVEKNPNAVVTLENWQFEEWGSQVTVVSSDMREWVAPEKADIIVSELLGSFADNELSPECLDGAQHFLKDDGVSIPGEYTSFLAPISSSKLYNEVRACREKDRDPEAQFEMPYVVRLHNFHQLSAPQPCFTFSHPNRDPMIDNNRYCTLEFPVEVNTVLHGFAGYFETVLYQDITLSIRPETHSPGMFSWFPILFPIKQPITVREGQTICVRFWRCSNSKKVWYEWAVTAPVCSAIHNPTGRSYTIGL
Chain of PRMT5 (Q9BQA1 2-342 partner): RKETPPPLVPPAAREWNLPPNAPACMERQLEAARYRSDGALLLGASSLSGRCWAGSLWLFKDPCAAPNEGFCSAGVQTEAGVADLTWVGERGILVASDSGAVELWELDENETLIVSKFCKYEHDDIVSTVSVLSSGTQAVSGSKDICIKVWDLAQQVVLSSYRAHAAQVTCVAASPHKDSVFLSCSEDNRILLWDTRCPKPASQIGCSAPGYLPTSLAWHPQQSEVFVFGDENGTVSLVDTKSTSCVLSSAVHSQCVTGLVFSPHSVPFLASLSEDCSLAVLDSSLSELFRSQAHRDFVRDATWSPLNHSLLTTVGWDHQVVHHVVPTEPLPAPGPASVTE

IC50 (PRMT5) [µM] | SMILES | IC50 (Z-138 cells) [µM] | further results
0.029 | O=c1c2ccccc2n(CC(F)F)c(=O)n1C[C@H](O)CN1CCc2ccccc2C1 [Compound 79, 1-(2,2-difluoroethyl)-3-[(2R)-3-(3,4-dihydro-1H-isoquinolin-2-yl)-2-hydroxy-propyl]quinazoline-2,4-dione] | 2.85 | –
0.043 | COc1ccc(-c2ccc3c(=O)n(C[C@H](O)CN4CCc5ccccc5C4)c(=O)n(CC4CC4)c3c2)cn1 [Compound 91, 1-(cyclopropylmethyl)-3-[(2R)-3-(3,4-dihydro-1H-isoquinolin-2-yl)-2-hydroxy-propyl]-7-(6-methoxy-3-pyridyl)quinazoline-2,4-dione] | 1.93 | –
0.045 | O=c1c2cc(-c3ccc(F)cc3)ccc2n(CC(F)F)c(=O)n1C[C@H](O)CN1CCc2ccccc2C1 [Compound 94, 1-(2,2-difluoroethyl)-3-[(2R)-3-(3,4-dihydro-1H-isoquinolin-2-yl)-2-hydroxy-propyl]-6-(4-fluorophenyl)quinazoline-2,4-dione] | 10 | –
– | O=c1c2ccccc2n(CC2CC2)c(=O)n1C[C@H](O)CN1CCc2ccccc2C1 [Compound 74, 1-(cyclopropylmethyl)-3-[(2R)-3-(3,4-dihydro-1H-isoquinolin-2-yl)-2-hydroxy-propyl]quinazoline-2,4-dione] | 2.94 | IC50 Values (PRMT5): <0.014 μMolar
0.036 | O=c1c2ccccc2n(CC2CCC2)c(=O)n1C[C@H](O)CN1CCc2ccccc2C1 [Compound 92, 1-(cyclobutylmethyl)-3-[(2R)-3-(3,4-dihydro-1H-isoquinolin-2-yl)-2-hydroxy-propyl]quinazoline-2,4-dione] | 3.63 | –
0.164 | O=c1c2ccccc2n(CC2CC(F)(F)C2)c(=O)n1C[C@H](O)CN1CCc2ccccc2C1 [Compound 95, 1-[(3,3-difluorocyclobutyl)methyl]-3-[(2R)-3-(3,4-dihydro-1H-isoquinolin-2-yl)-2-hydroxy-propyl]quinazoline-2,4-dione] | – | –
0.009 | O=c1c2ccc(Br)cc2n(CC2CC2)c(=O)n1C[C@H](O)CN1CCc2ccccc2C1 [Compound 80, 7-bromo-1-(cyclopropylmethyl)-3-[(2R)-3-(3,4-dihydro-1H-isoquinolin-2-yl)-2-hydroxy-propyl]quinazoline-2,4-dione] | 1.12 | –
0.159 | COc1ccc2[nH]c(=O)n(C[C@H](O)CN3CCc4ccccc4C3)c(=O)c2c1 [Compound 81, 3-[(2R)-3-(3,4-dihydro-1H-isoquinolin-2-yl)-2-hydroxy-propyl]-6-methoxy-1H-quinazoline-2,4-dione] | – | –
0.035 | O=c1c2ccc(-c3cccnc3)cc2n(CC2CC2)c(=O)n1C[C@H](O)CN1CCc2ccccc2C1 [Compound 86, 1-(cyclopropylmethyl)-3-[(2R)-3-(3,4-dihydro-1H-isoquinolin-2-yl)-2-hydroxy-propyl]-7-(3-pyridyl)quinazoline-2,4-dione] | – | –
0.071 | CC(C)Cn1c(=O)n(C[C@H](O)CN2CCc3ccccc3C2)c(=O)c2ccccc21 [Compound 102, 3-[(2R)-3-(3,4-dihydro-1H-isoquinolin-2-yl)-2-hydroxy-propyl]-1-isobutyl-quinazoline-2,4-dione] | – | –
– | CC(C)Cn1c(=O)n(C[C@H](O)CN2CCc3ccccc3C2)c(=O)c2ccc(Br)cc21 [Compound 70, 7-bromo-3-[(2R)-3-(3,4-dihydro-1H-isoquinolin-2-yl)-2-hydroxy-propyl]-1-isobutyl-quinazoline-2,4-dione] | 0.673 | IC50 Values (PRMT5): <0.014 μMolar; AUC(0-inf) [1]: 748 ng·h/mL; C0 [1]: 1520 ng/mL; MRT inf [1]: 1.22 h; clearance [1]: 66.9 mL/min/kg; half-life [1]: 1.56 h; Vd ([1]; read-out: Vss): 4.88 L/kg
0.058 | COc1ccc2c(c1)c(=O)n(C[C@H](O)CN1CCc3ccccc3C1)c(=O)n2CC1CC1 [Compound 87, 1-(cyclopropylmethyl)-3-[(2R)-3-(3,4-dihydro-1H-isoquinolin-2-yl)-2-hydroxy-propyl]-6-methoxy-quinazoline-2,4-dione] | – | –
0.012 | O=c1c2ccc(Cl)cc2n(CC2CC2)c(=O)n1C[C@H](O)CN1CCc2ccccc2C1 [Compound 78, 7-chloro-1-(cyclopropylmethyl)-3-[(2R)-3-(3,4-dihydro-1H-isoquinolin-2-yl)-2-hydroxy-propyl]quinazoline-2,4-dione] | 1.95 | –
0.779 | N#Cc1ccc(Cn2c(=O)n(CC(O)CN3CCc4ccccc4C3)c(=O)c3ccccc32)cc1 (stereo not drawn) [Compound 100, 4-[[3-[3-(3,4-dihydro-1H-isoquinolin-2-yl)-2-hydroxy-propyl]-2,4-dioxo-quinazolin-1-yl]methyl]benzonitrile] | – | –
0.035 | COc1ccc2c(=O)n(C[C@H](O)CN3CCc4ccccc4C3)c(=O)n(CC3CC3)c2c1 [Compound 84, 1-(cyclopropylmethyl)-3-[(2R)-3-(3,4-dihydro-1H-isoquinolin-2-yl)-2-hydroxy-propyl]-7-methoxy-quinazoline-2,4-dione] | – | –
0.021 | Cc1ccc2c(c1)c(=O)n(C[C@H](O)CN1CCc3ccccc3C1)c(=O)n2CC1CC1 [Compound 88, 1-(cyclopropylmethyl)-3-[(2R)-3-(3,4-dihydro-1H-isoquinolin-2-yl)-2-hydroxy-propyl]-6-methyl-quinazoline-2,4-dione] | – | –
